Measured values as given in ChEMBL document CHEMBL5325488, “Discovery of SMD-3040 as a Potent and Selective SMARCA2 PROTAC Degrader with Strong in vivo Antitumor Activity” (J Med Chem, 2023).

What was measured:
[1] = Toxicity in SCID mouse xenografted with human SK-MEL-5 cells assessed as effect on change in body weight at 25 to 50 mg/kg, iv administered twice a week measured after 32 days; type: organism-based; details: in vivo, 768 h, dose 25-50 mg/kg, time 32 day
[2] = molecular target: T1, von Hippel-Lindau disease tumor suppressor/SWI/SNF-related matrix-associated actin-dependent regulator of chromatin subfamily A member 4 (Homo sapiens, UniProt P51532+P40337); test: PROTAC activity at VHL/C-terminal HiBiT fused SMARCA4 in human HeLa cells assessed as induction of SMARCA4 degradation by measuring maximal efficacy incubated for 24 hrs by Nano-Glo HiBiT analysis relative to control; type: cell-based
Target sequence in this assay (P40337 whole entry, looked up, the tested form may be a part): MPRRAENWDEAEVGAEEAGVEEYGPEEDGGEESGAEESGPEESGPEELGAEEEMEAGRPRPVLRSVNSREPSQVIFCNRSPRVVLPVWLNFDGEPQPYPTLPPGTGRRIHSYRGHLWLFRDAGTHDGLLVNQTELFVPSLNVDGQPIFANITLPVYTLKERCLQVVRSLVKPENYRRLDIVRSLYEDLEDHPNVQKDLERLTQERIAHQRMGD
Target sequence in this assay (P51532 whole entry, looked up, the tested form may be a part): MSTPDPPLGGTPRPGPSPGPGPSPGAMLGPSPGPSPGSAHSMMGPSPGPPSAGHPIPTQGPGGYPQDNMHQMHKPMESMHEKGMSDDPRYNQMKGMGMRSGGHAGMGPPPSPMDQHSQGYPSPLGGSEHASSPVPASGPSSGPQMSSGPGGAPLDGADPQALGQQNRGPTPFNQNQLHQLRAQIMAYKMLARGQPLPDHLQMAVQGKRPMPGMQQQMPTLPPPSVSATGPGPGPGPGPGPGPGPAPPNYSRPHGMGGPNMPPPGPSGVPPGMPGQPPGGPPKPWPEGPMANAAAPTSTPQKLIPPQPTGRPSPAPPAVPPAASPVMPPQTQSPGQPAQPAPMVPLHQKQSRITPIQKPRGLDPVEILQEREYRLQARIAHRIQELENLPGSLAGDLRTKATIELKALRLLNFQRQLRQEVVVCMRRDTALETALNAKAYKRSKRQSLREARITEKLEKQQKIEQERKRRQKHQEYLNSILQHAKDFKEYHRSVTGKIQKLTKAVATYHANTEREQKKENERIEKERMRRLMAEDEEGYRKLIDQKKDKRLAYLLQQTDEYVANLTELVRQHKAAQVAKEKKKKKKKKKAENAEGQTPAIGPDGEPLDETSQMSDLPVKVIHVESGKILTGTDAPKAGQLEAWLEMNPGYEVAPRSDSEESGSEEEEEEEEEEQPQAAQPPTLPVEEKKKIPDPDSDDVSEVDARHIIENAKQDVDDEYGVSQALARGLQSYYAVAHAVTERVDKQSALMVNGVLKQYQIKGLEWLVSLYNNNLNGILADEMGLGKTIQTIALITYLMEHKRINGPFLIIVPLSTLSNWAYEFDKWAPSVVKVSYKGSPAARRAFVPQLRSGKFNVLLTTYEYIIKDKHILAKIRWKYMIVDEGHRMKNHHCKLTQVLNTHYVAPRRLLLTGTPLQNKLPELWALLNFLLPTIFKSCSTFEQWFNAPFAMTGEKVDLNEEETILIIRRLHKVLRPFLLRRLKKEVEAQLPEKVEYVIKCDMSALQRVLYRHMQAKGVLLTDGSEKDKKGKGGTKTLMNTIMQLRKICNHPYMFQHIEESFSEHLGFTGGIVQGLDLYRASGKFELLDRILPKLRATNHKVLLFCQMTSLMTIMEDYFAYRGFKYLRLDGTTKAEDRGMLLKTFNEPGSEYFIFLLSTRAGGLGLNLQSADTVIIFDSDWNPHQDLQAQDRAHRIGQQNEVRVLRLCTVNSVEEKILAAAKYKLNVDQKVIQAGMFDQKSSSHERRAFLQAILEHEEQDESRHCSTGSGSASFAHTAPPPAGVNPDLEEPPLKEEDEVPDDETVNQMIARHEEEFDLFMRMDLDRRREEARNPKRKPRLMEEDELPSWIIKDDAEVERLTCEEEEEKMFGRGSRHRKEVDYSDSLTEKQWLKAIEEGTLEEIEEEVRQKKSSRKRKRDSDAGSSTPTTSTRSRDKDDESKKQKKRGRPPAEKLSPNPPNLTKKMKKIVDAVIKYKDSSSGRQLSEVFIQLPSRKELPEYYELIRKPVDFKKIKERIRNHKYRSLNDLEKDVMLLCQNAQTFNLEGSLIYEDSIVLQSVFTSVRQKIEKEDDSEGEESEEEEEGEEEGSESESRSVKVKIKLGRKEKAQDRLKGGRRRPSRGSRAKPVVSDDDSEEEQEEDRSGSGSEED

[3] = test system: NCI-H1975; test: Antiproliferative activity against human NCI-H1975 cells expressing wild-type SMARCA2 assessed as cell growth inhibition by measuring maximal efficacy measured after 7 days by WST-8 assay relative to control; type: functional; details: time 7 day
[4] = molecular target: T2, von Hippel-Lindau disease tumor suppressor/SWI/SNF-related matrix-associated actin-dependent regulator of chromatin subfamily A member 2 (Homo sapiens, UniProt P51531+P40337); test: PROTAC activity at VHL/C-terminal HiBiT fused SMARCA2 in human HeLa cells assessed as induction of SMARCA2 degradation incubated for 3 hrs by Nano-Glo HiBiT analysis; type: cell-based
[5] = Drug concentration in SCID mouse tumor xenografted with human MV4-11 cells at 50 mg/kg, iv measured after 6 hrs by LC-MS/MS method; type: ADME, organism-based, Neoplasm; details: read-out: Ct
[6] = Drug concentration in SCID mouse tumor xenografted with human MV4-11 cells at 50 mg/kg, iv measured after 2 hrs by LC-MS/MS method; type: ADME, organism-based, Neoplasm; details: read-out: Ct
[7] = molecular target: T1, von Hippel-Lindau disease tumor suppressor/SWI/SNF-related matrix-associated actin-dependent regulator of chromatin subfamily A member 4; test: In vivo PROTAC activity at VHL/SMARCA4 in SCID mouse xenografted with human MV4-11 cells assessed as reduction of SMARCA4 level in tumor at 50 mg/kg, iv administered as single dose measured after 2 hrs by Western blotting analysis; type: ADME, organism-based; parameters: scale not given: the % may be the effect or the level left
[8] = molecular target: T1, von Hippel-Lindau disease tumor suppressor/SWI/SNF-related matrix-associated actin-dependent regulator of chromatin subfamily A member 4; test: PROTAC activity at VHL/C-terminal HiBiT fused SMARCA4 in human HeLa cells assessed as induction of SMARCA4 degradation by measuring maximal efficacy at 0.001 to 10 uM incubated for 3 hrs by Nano-Glo HiBiT analysis relative to control; type: cell-based; details: dose 0.001-10 µM
Target sequence in this assay (P40337 whole entry, looked up, the tested form may be a part): as the sequence (P40337 whole entry, looked up, the tested form may be a part) above
Target sequence in this assay (P51532 whole entry, looked up, the tested form may be a part): as the sequence (P51532 whole entry, looked up, the tested form may be a part) above

[9] = molecular target: T2, von Hippel-Lindau disease tumor suppressor/SWI/SNF-related matrix-associated actin-dependent regulator of chromatin subfamily A member 2; test: PROTAC activity at VHL/wild-type SMARCA2 in human SK-MEL-28 cells assessed as induction of SMARCA2 degradation incubated for 24 hrs by Western blotting analysis; type: cell-based
[10] = test system: NCI-H1944; test: Antiproliferative activity against SMARCA4-deficient human NCI-H1944 cells assessed as cell growth inhibition by measuring maximal efficacy measured after 7 days by WST-8 assay relative to control; type: functional; details: time 7 day
[11] = Drug concentration in SCID mouse plasma xenografted with human MV4-11 cells at 50 mg/kg, iv measured after 6 hrs by LC-MS/MS method; type: ADME, organism-based
[12] = molecular target: T1, von Hippel-Lindau disease tumor suppressor/SWI/SNF-related matrix-associated actin-dependent regulator of chromatin subfamily A member 4; test: PROTAC activity at VHL/C-terminal HiBiT fused SMARCA4 in human HeLa cells assessed as induction of SMARCA4 degradation by measuring maximal efficacy at 0.001 to 10 uM incubated for 48 hrs by Nano-Glo HiBiT analysis relative to control; type: cell-based; details: dose 0.001-10 µM
Target sequence in this assay (P40337 whole entry, looked up, the tested form may be a part): as the sequence (P40337 whole entry, looked up, the tested form may be a part) above
Target sequence in this assay (P51532 whole entry, looked up, the tested form may be a part): as the sequence (P51532 whole entry, looked up, the tested form may be a part) above

[13] = test system: NCI-H838; test: Antiproliferative activity against SMARCA4-deficient human NCI-H838 cells assessed as cell growth inhibition measured after 7 days by WST-8 assay; type: functional; details: NCI-H838, 168 h, time 7 day
[14] = molecular target: T2, von Hippel-Lindau disease tumor suppressor/SWI/SNF-related matrix-associated actin-dependent regulator of chromatin subfamily A member 2; test: In vivo PROTAC activity at VHL/SMARCA2 in SCID mouse xenografted with human MV4-11 cells assessed as reduction of SMARCA2 level in tumor at 50 mg/kg, iv administered as single dose measured after 72 hrs by Western blotting analysis; type: ADME, organism-based; parameters: scale not given: the % may be the effect or the level left
[15] = molecular target: T2, von Hippel-Lindau disease tumor suppressor/SWI/SNF-related matrix-associated actin-dependent regulator of chromatin subfamily A member 2; test: PROTAC activity at VHL/C-terminal HiBiT fused SMARCA2 in human HeLa cells assessed as induction of SMARCA2 degradation at 0.001 to 10 uM by Nano-Glo HiBiT analysis; type: cell-based; details: dose 0.001-10 µM, time 1-48 hrs, TDE = time-dependent effect
Target sequence in this assay (P40337 whole entry, looked up, the tested form may be a part): as the sequence (P40337 whole entry, looked up, the tested form may be a part) above
Target sequence in this assay (P51531 whole entry, looked up, the tested form may be a part): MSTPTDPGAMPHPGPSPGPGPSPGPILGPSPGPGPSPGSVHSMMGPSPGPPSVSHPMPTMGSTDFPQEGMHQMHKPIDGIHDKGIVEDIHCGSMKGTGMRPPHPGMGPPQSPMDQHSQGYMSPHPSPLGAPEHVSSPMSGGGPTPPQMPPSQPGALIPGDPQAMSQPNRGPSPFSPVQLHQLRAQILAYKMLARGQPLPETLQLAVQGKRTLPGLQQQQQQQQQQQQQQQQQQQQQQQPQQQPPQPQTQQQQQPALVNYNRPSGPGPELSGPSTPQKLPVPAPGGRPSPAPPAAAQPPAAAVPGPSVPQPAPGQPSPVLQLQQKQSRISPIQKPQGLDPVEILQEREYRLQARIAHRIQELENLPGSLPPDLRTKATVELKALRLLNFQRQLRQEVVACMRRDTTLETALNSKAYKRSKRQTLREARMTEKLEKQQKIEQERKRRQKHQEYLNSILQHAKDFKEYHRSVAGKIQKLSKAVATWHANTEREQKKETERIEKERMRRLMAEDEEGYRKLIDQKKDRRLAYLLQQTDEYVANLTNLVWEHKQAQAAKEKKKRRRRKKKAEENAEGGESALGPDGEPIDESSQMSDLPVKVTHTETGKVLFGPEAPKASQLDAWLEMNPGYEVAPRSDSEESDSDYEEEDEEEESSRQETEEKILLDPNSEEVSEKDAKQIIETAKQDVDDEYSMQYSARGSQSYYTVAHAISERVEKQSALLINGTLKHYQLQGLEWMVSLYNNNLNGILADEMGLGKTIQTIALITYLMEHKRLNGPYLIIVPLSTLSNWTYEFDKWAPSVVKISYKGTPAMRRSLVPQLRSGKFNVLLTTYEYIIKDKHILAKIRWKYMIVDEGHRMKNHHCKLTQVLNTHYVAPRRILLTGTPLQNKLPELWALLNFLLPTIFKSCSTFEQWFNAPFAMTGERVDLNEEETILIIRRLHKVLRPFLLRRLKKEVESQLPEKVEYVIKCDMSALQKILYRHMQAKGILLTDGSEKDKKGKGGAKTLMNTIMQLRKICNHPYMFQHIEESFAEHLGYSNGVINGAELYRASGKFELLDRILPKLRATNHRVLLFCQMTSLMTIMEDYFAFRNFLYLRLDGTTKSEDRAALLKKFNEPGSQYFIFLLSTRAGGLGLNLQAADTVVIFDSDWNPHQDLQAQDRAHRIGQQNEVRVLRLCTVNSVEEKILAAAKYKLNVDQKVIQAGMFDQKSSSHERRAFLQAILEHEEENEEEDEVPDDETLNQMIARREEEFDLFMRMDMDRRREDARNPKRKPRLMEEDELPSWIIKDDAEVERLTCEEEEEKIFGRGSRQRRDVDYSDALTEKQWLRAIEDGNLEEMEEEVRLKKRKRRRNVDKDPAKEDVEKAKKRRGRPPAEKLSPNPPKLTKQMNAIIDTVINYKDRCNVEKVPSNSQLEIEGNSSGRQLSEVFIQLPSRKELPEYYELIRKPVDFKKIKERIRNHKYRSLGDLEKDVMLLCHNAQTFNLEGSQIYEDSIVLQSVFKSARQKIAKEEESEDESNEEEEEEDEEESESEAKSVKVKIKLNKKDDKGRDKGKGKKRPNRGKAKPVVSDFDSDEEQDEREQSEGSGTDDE

[16] = molecular target: T2, von Hippel-Lindau disease tumor suppressor/SWI/SNF-related matrix-associated actin-dependent regulator of chromatin subfamily A member 2; test: PROTAC activity at VHL/C-terminal HiBiT fused SMARCA2 in human HeLa cells assessed as induction of SMARCA2 degradation incubated for 48 hrs by Nano-Glo HiBiT analysis; type: cell-based
[17] = molecular target: T1, von Hippel-Lindau disease tumor suppressor/SWI/SNF-related matrix-associated actin-dependent regulator of chromatin subfamily A member 4; test: In vivo PROTAC activity at VHL/SMARCA4 in SCID mouse xenografted with human MV4-11 cells assessed as reduction of SMARCA4 level in tumor at 50 mg/kg, iv administered as single dose measured after 72 hrs by Western blotting analysis; type: ADME, organism-based; parameters: scale not given: the % may be the effect or the level left
[18] = molecular target: T1, von Hippel-Lindau disease tumor suppressor/SWI/SNF-related matrix-associated actin-dependent regulator of chromatin subfamily A member 4; test: PROTAC activity at VHL/C-terminal HiBiT fused SMARCA4 in human HeLa cells assessed as induction of SMARCA4 degradation incubated for 1 to 48 hrs by Nano-Glo HiBiT analysis; type: cell-based; details: dose 0.001-10 µM, time 1-48 hrs
Target sequence in this assay (P40337 whole entry, looked up, the tested form may be a part): as the sequence (P40337 whole entry, looked up, the tested form may be a part) above
Target sequence in this assay (P51532 whole entry, looked up, the tested form may be a part): as the sequence (P51532 whole entry, looked up, the tested form may be a part) above

[19] = molecular target: T2, von Hippel-Lindau disease tumor suppressor/SWI/SNF-related matrix-associated actin-dependent regulator of chromatin subfamily A member 2; test: In vivo PROTAC activity at VHL/SMARCA2 in SCID mouse xenografted with human MV4-11 cells assessed as remaining activity in tumor at 50 mg/kg, iv administered as single dose measured after 2 hrs by Western blotting analysis (reference value: 100 +/- 15 % ); type: ADME, organism-based
[20] = molecular target: T2, von Hippel-Lindau disease tumor suppressor/SWI/SNF-related matrix-associated actin-dependent regulator of chromatin subfamily A member 2; test: PROTAC activity at VHL/C-terminal HiBiT fused SMARCA2 in human HeLa cells assessed as induction of SMARCA2 degradation incubated for 24 hrs by Nano-Glo HiBiT analysis; type: cell-based
[21] = molecular target: T2, von Hippel-Lindau disease tumor suppressor/SWI/SNF-related matrix-associated actin-dependent regulator of chromatin subfamily A member 2; test: PROTAC activity at VHL/C-terminal HiBiT fused SMARCA2 in human HeLa cells assessed as induction of SMARCA2 degradation incubated for 6 hrs by Nano-Glo HiBiT analysis; type: cell-based
[22] = molecular target: T2, von Hippel-Lindau disease tumor suppressor/SWI/SNF-related matrix-associated actin-dependent regulator of chromatin subfamily A member 2; test: In vivo PROTAC activity at VHL/SMARCA2 in SCID mouse xenografted with human NCI-H838 cells assessed as reduction of SMARCA2 level in tumor at 50 mg/kg, iv administered as single dose measured after 24 hrs by Western blotting analysis; type: functional, organism-based; parameters: scale not given: the % may be the effect or the level left
Target sequence in this assay (P40337 whole entry, looked up, the tested form may be a part): as the sequence (P40337 whole entry, looked up, the tested form may be a part) above
Target sequence in this assay (P51531 whole entry, looked up, the tested form may be a part): as the sequence (P51531 whole entry, looked up, the tested form may be a part) above

[23] = molecular target: T2, von Hippel-Lindau disease tumor suppressor/SWI/SNF-related matrix-associated actin-dependent regulator of chromatin subfamily A member 2; test: PROTAC activity at VHL/C-terminal HiBiT fused SMARCA2 in human HeLa cells assessed as induction of SMARCA2 degradation incubated for 1 to 48 hrs by Nano-Glo HiBiT analysis; type: cell-based; details: dose 0.001-10 µM, time 1-48 hrs
Target sequence in this assay (P40337 whole entry, looked up, the tested form may be a part): as the sequence (P40337 whole entry, looked up, the tested form may be a part) above
Target sequence in this assay (P51531 whole entry, looked up, the tested form may be a part): as the sequence (P51531 whole entry, looked up, the tested form may be a part) above

[24] = test system: NCI-H1299; test: Antiproliferative activity against SMARCA4-deficient human NCI-H1299 cells assessed as cell growth inhibition by measuring maximal efficacy measured after 7 days by WST-8 assay relative to control; type: functional; details: time 7 day
[25] = molecular target: T2, von Hippel-Lindau disease tumor suppressor/SWI/SNF-related matrix-associated actin-dependent regulator of chromatin subfamily A member 2; test: PROTAC activity at VHL/wild-type SMARCA2 in human SK-MEL-28 cells assessed as induction of SMARCA2 degradation at 0.001 to 1000 nM incubated for 24 hrs by Western blotting analysis relative to control; type: cell-based; details: dose 0.001-1000 nM
Target sequence in this assay (P40337 whole entry, looked up, the tested form may be a part): as the sequence (P40337 whole entry, looked up, the tested form may be a part) above
Target sequence in this assay (P51531 whole entry, looked up, the tested form may be a part): as the sequence (P51531 whole entry, looked up, the tested form may be a part) above

[26] = test system: SK-MEL-5; test: Antitumor activity against SMARCA4-deficient human SK-MEL-5 cells xenografted in SCID mouse assessed as tumor growth inhibition at 50 mg/kg, iv administered twice a week measured after 32 days relative to control; type: functional; details: SK-MEL-5, 768 h, time 32 day, read-out: TGI

For `Cc1ncsc1-c1ccc([C@H](C)NC(=O)[C@@H]2C[C@@H](O)CN2C(=O)[C@@H](NC(=O)[C@H]2CC[C@H](CN3CC4(CCC(n5cc(-c6cc(-c7ccccc7O)nnc6N)cn5)CC4)C3)CC2)C(C)(C)C)cc1`, the Activity [1] was “Non-Toxic”, the Emax [2] was 44% and the Imax [3] was 47%. The DC50 [4] was 0.063 µM, the concentration at 6 h [5] was 1100 ng/g and the concentration at 2 h [6] was 3420 ng/g. For the same compound, the Activity [7] was 7%, the Emax [8] was 46% and the DC50 [9] was 0.035 µM. It also gave an Imax [10] of 88%, a concentration at 6 h [11] of 0.766 µg/mL and an Emax [12] of 68%. For the same compound, the GI50 [13] was 0.119 µM, the Activity [14] was 56% and the Activity [15] was “Tde”. The DC50 [16] was 0.011 µM, the Activity [17] was 9% and the Activity [18] was “Dose-Dependent Effect”. For the same compound, the Activity [19] was 22%, the DC50 [20] was 0.01 µM and the DC50 [21] was 0.044 µM. The Activity [22] was 91%, the Activity [23] was “Dose-Dependent Effect” and the Imax [24] was 41%. The Emax [25] was 98% and the inhibition in vivo at 50 mg/kg [26] was 74%.
